According to patent publication US20040048754A1, “Compounds for a controlled release of active compounds” (priority 2001, published 2004):

Legend:
Format in all cases: physicochemical
[1] = Amount of perfumery alcohols released by alkaline hydrolysis (HPLC); details: % relative to total amount of starting compound
Method: […] To determine the exact pH value of the reaction solution, 10 ml of the buffer solutions were diluted with 2 ml of acetonitrile and the pH values measured (on a Mettler Toledo […]).
About 25 mg of the precursors were placed in 1 ml of a buffer solution, 0.2 ml of acetonitrile was added and the supernatant solution was immediately injected in a […] HPLC apparatus (t=0), eluted at 3 ml/min on a reversed phase column with a mixture of water/acetonitrile containing 0.1% of TFA. The amount of the released alcohol was monitored by HPLC analysis at different time intervals at λ=214 or 254 nm. An external calibration curve for the corresponding alcohol in acetonitrile has been obtained from 4-8 dilutions. Chromatograms were recorded on a Merck Chromolith™ Performance RP-C18e column (100×4.6 mm i.d.) using a water/acetonitrile gradient (100:0 for 0.2 min then to 0:100 during 10 min or 80:20 to 20:80 during 10 min).

[2] = Amount of cyclization of the precursor under alkaline hydrolysis conditions (HPLC); details: 20° C., first step of cyclization only, % relative to total amount of starting compound
Method: Buffer solutions were prepared by dissolving two phosphate or borate buffer tablets (origin: Fluka, Switzerland) in a mixture of 160 ml water and 40 ml acetonitrile, respectively. To determine the exact pH value of the reaction solution, 10 ml of the buffer solutions were diluted with 2 ml of acetonitrile and the pH values measured (on a Mettler Toledo MP220 apparatus with an InLab 410 Ag/AgCl glass electrode) to be 7.62 (phosphate buffer) and 10.47 (borate buffer).
0.2 ml of a solution of 35 to 45 mg of the precursors in 25 ml of acetonitrile were added to 1.0 ml of a buffer solution at 20° C. The mixture was immediately injected in a HPLC apparatus (t=0), eluted at 1 ml/min on a reversed phase column with a mixture of water/acetonitrile containing 0.1% of TFA. Then the decrease of the amount of precursor and the simultaneous formation of the cyclized products was monitored at different time intervals at λ=254 and 280 nm. Chromatograms were recorded on a Macherey-Nagel, Nucleosil® 100-5 C18 column (250×4 mm i.d.) using a water/acetonitrile gradient (70:30 to 20:80 during 20 min) or on a Merck Chromolith™ SpeedROD RP-C18e column (50×4.6 mm i.d.) using a water/acetonitrile gradient (70:30 to 40:60 during 3 min).

[3] = Measure of fragrance release (hydrolysis) by UV spectroscopy; details: phosphate buffer, 20° C., 260-360 nm
Method: 2 ml of a precursor solution (35-55 mg in 25 ml of acetonitrile, at 20° C.) were added, at t=0, to 10 ml of a phosphate buffer solution (prepared as described in Example 14).
Hydrolysis was followed by recording the absorption spectra of the reaction mixture at constant time intervals in the range of 260-360 nm with a scanning rate of 960 nm/min until completion of the hydrolysis.

CC(C)(Cc1ccccc1)OC(=O)c1ccccc1C(=O)NCCCN(CCCNC(=O)c1ccccc1C(=O)OC(C)(C)Cc1ccccc1)CCCN(CCCCN(CCCN(CCCNC(=O)c1ccccc1C(=O)OC(C)(C)Cc1ccccc1)CCCNC(=O)c1ccccc1C(=O)OC(C)(C)Cc1ccccc1)CCCN(CCCNC(=O)c1ccccc1C(=O)OC(C)(C)Cc1ccccc1)CCCNC(=O)c1ccccc1C(=O)OC(C)(C)Cc1ccccc1)CCCN(CCCNC(=O)c1ccccc1C(=O)OC(C)(C)Cc1ccccc1)CCCNC(=O)c1ccccc1C(=O)OC(C)(C)Cc1ccccc1 [Example 7]
Amount of released alcohol ([1]; pH 10.47, 2 d): 29%

CC(C)(Cc1ccccc1)OC(=O)c1ccccc1C(=O)NCCCCCCCNC(=O)c1ccccc1C(=O)OC(C)(C)Cc1ccccc1 [Example 4, bis(1,1-dimethyl-2-phenylethyl) 2,2′-(1,11-dioxo-2,10-diazaundecane-1,11-diyl)dibenzoate]
Amount of cyclized precursor ([2]; pH 10.47, 3.0 h): 98%

C=CC(C)(CCC=C(C)C)OC(=O)c1ccccc1C(=O)NCCCN(C)CCCNC(=O)c1ccccc1C(=O)OC(C)(C=C)CCC=C(C)C (racemic) [Example 5b, (±)-bis(1,5-dimethyl-1-vinyl-4-hexenyl) 2,2′-(6-methyl-1,11-dioxo-2,6,10-triazaundecane-1,11-diyl)dibenzoate]
Hydrolysis followed by UV absorption spectra [3]: verified | Amount of cyclized precursor ([2]; pH 7.62, 9.4 h): 72%

CN(CCCNC(=O)c1ccccc1C(=O)OC(C)(C)Cc1ccccc1)CCCNC(=O)c1ccccc1C(=O)OC(C)(C)Cc1ccccc1 [Example 3b, bis(1,1-dimethyl-2-phenylethyl) 2,2′-(6-methyl-1,11-dioxo-2,6,10-triazaundecane-1,11-diyl)dibenzoate]
Hydrolysis followed by UV absorption spectra [3]: verified | Amount of cyclized precursor ([2]; pH 7.62, 22.4 h): 69%

CC(C)(Cc1ccccc1)OC(=O)c1ccccc1C(=O)NCCCN(CCCCN(CCCNC(=O)c1ccccc1C(=O)OC(C)(C)Cc1ccccc1)CCCNC(=O)c1ccccc1C(=O)OC(C)(C)Cc1ccccc1)CCCNC(=O)c1ccccc1C(=O)OC(C)(C)Cc1ccccc1 [Example 6b, Dendrimer 4-cascade: 1,4-diaminobutane[4-N,N,N′,N′]:N-(2-[(1,1-dimethyl-2-phenylethoxy)carbonyl]benzoyl)propylamine]
Hydrolysis followed by UV absorption spectra [3]: verified | Amount of cyclized precursor ([2]; pH 7.62, 24.6 h): 80%

CCCC(Cc1ccccc1)OC(=O)c1ccccc1C(=O)NCCCN(C)CCCNC(=O)c1ccccc1C(=O)OC(CCC)Cc1ccccc1 (racemic) [Example 2b, (±)-bis(1-benzylbutyl)2,2′-(6-methyl-1,11-dioxo-2,6,10-triazaundecane-1,11-diyl)dibenzoate]
Amount of cyclized precursor ([2]; pH 7.62, 2.1 h): 98%

dendrimer 16-cascade: 1,4-diaminobutane[4-N,N,N′,N′:(1-azabutylidene)^2:N-(2-[(1,1-dimethyl-2-phenylethoxy)carbonyl]benzoyl)propylamine [Example 8]
Amount of released alcohol ([1]; pH 10.98, 4 d, phosphate-bicarbonate buffer in water/acetonitrile 16:9): 69%

CC(C)=CCC/C(C)=C/COC(=O)/C=C\C(=O)NCCNC(=O)/C=C\C(=O)OC/C=C(\C)CCC=C(C)C [Example 1, (6E,11Z,19Z,24E)-2,6,25,29-tetramethyl-9,22-dioxa-14,17-diaza-2,6,11,19,24,28-triaconta-hexaene-10,13,18,21-tetrone]
Amount of cyclized precursor ([2]; pH 7.62, 4.7 h): 97%
